Assay results: publication PMC5233962 (Scientific Reports, 2017)
Where “and” joins values, the source holds several entries; their conditions need not be identical. Identical values can stand only once. Like-named read-outs stand apart in the source and are kept apart here.

Columns and labels:
[1] = target: T1, rat brain MAO A (Rattus norvegicus, UniProt P21396); assay: Radiometric IC50 determination, rat brain MAO A; assay type: biochemical; conditions: substrate 5-HT, rat brain homogenate, read-out: IC50 rMAO A
T1 construct: the crude homogenates prepared from pooled brain from three rats were used; from tissue; host or cells: Wistar rat brain, crude homogenate
T1 sequence (P21396 whole entry): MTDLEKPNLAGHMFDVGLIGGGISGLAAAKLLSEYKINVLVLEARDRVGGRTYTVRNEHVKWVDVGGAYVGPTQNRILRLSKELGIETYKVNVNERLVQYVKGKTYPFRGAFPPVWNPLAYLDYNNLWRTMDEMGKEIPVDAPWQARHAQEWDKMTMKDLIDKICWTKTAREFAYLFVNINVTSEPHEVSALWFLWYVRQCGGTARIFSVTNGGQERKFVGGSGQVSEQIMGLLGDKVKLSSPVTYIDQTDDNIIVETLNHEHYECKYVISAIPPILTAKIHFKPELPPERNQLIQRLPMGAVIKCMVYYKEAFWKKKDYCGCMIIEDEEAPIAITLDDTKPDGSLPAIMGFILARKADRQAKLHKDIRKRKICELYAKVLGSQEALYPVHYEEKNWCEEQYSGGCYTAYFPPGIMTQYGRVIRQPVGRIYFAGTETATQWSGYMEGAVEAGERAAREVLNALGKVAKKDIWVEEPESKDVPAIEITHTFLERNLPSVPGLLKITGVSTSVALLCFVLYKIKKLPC
Description: (§1) The IC50 values of ciproxifan for rat brain MAO (rMAO) were obtained radiometrically using serotonin (5-HT) and phenylethylamine (PEA) as MAO A and MAO B substrates, respectively.
(§2) Wistar male rats were sacrificed, the brains were quickly excised from the skulls, cleaned of residual meninges and frozen on dry ice. For each experiment the crude homogenates prepared from pooled brain from three rats were used. Enzyme activity of MAO A or MAO B was measured using radioactive substrate (PerkinElmer/NEN): serotonin (5-[2-^14C]-hydroxytryptamine binoxalate) or β-[ethyl-1-^14C]-phenyl-ethyl-amine hydrochloride (PEA), respectively, with the procedure described by Fowler and Tipton 1981[25] with some modification according to Gómez et al.[26]. […] IC50 values were determined in three independent experiments, each performed in duplicates.

[2] = target: T2, rat brain MAO B (Rattus norvegicus, UniProt P19643); assay: Radiometric IC50 determination, rat brain MAO B; assay type: biochemical
T2 construct: the crude homogenates prepared from pooled brain from three rats were used; from tissue; host or cells: Wistar rat brain, crude homogenate
T2 sequence (P19643 whole entry): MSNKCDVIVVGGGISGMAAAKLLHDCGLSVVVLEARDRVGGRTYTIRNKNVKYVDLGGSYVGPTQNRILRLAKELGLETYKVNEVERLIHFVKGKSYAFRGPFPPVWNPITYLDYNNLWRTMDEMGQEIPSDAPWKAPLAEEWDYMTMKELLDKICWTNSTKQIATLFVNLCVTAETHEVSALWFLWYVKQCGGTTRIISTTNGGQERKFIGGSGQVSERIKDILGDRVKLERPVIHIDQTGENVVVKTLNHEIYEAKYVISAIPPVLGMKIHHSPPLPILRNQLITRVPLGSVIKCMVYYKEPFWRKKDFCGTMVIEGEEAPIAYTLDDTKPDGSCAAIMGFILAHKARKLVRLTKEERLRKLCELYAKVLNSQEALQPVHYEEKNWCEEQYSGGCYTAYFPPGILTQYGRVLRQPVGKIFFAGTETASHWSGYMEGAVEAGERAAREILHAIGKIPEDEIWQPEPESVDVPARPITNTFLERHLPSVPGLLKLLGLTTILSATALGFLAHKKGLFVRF
Description: as §1, §2

[3] = target: r5-HT4; set-up: method as in PMID 9808693; conditions: rat esophagus; cited from earlier work
[4] = target: mkH3R; set-up: method as in PMID 14660004; conditions: monkey H3R; cited from earlier work
[5] = target: rα1D; set-up: method as in PMID 9808693; conditions: rat aorta; cited from earlier work
[6] = target: gp5-HT3; set-up: method as in PMID 9808693; conditions: guinea pig ileum; cited from earlier work
[7] = target: gp5-HT1B; set-up: method as in PMID 9808693; conditions: guinea pig iliac; cited from earlier work
[8] = target: hH2R; set-up: method as in PMID 12606603; conditions: human; cited from earlier work
[9] = target: rodent H3R; assay: Affinity at rodent H3R (discussion); assay type: binding; conditions: rodent vs human H3R
[10] = target: human recombinant membrane-bound MAO A (Homo sapiens, UniProt P21397); assay: Spectrophotometric IC50 determination, human MAO A; conditions: IC50 hMAO A, substrate KYN
Chain of human recombinant membrane-bound MAO A (P21397 whole entry): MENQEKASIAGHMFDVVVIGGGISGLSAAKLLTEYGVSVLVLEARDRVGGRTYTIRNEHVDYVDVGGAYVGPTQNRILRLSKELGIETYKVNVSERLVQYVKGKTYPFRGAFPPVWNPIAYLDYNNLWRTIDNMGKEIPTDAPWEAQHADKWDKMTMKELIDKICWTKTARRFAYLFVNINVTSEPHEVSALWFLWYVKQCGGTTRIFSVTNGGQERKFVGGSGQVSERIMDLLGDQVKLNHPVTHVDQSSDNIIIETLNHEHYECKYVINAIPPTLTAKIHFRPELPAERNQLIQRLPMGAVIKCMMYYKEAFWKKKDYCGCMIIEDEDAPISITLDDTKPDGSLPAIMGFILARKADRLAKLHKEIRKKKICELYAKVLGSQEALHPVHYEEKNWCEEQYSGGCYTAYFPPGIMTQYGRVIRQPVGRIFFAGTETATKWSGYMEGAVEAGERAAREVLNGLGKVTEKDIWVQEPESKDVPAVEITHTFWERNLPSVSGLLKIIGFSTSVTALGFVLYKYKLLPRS
Description: Enzyme studies were carried out using human recombinant membrane-bound MAO A and MAO B (Sigma-Aldrich, St. Louis, MO). […] For optimal enzyme activity all assays were carried out under potassium phosphate buffered conditions (50 mM, pH = 7.4). […] Data were analysed using GraphPad PRISM version 6. For IC50 determinations initial velocities for each experiment were normalized (expressed as percentage), plotted against inhibitor concentrations and fitted using the non-linear regression “log inhibitor vs. response (three parameters)”. IC50 values were determined in at least three independent experiments, each performed at least in duplicates.

[11] = target: hH4R; set-up: method as in PMID 12606603; conditions: human; cited from earlier work
[12] = target: r5-HT3; set-up: method as in PMID 12606603; conditions: rat; cited from earlier work
[13] = target: hH1R; set-up: method as in PMID 12606603; conditions: human; cited from earlier work
[14] = target: hα2A; set-up: method as in PMID 12606603; conditions: human; cited from earlier work
[15] = target: hH3R; set-up: method as in PMID 11090094, PMID 12606603, PMID 14660004; conditions: human H3R; cited from earlier work
[16] = target: gpβ1; set-up: method as in PMID 9808693; conditions: guinea pig atrium; cited from earlier work
[17] = target: T3, human recombinant membrane-bound MAO B (Homo sapiens, UniProt P27338); assay: Spectrophotometric IC50 determination, human MAO B; assay type: biochemical; conditions: for IC50: spectrophotometric, read-out: IC50 hMAO B
T3 construct: purchased Sigma-Aldrich
T3 sequence (P27338 1-520): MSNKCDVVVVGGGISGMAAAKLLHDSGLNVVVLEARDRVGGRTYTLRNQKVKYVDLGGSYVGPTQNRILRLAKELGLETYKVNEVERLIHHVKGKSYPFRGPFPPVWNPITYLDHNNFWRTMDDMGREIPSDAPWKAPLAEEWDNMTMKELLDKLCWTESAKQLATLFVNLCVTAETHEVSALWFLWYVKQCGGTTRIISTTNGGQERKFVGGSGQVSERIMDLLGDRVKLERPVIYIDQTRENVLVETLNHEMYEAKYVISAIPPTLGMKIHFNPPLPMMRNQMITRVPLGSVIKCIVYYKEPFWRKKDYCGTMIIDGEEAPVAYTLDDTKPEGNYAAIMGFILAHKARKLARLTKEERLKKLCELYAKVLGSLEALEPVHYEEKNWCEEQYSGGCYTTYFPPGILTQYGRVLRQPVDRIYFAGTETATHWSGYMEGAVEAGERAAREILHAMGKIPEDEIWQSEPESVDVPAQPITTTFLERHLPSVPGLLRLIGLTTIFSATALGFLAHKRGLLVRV

[18] = target: rH3R; conditions: rat H3R; cited from earlier work
[19] = tested on: hMAO; assay: Type of inhibition from dilution experiments, both hMAO isoforms; assay type: biochemical, human; conditions: dilution experiment, preincubation 10 × IC50, 100-fold dilution
Description: After preincubation probes were diluted 100-fold, measured at saturated substrate conditions and the remaining enzyme activity was compared to that of MAO preincubated without ciproxifan.
Reversibility of hMAO inhibition by ciproxifan was assessed by dilution experiments. […] The inhibitor volume represented one-tenth of the total preincubation volume. […] Enzymatic conversion rates were determined in the presence of kynuramine for hMAO A and benzylamine for hMAO B at saturating substrate concentrations (10 × KM) under potassium phosphate buffer conditions (50 mM, pH = 7.4).

[20] = target: r5-HT1; set-up: method as in PMID 18683917; conditions: rat; cited from earlier work
[21] = target: gp M3; set-up: method as in PMID 9808693; conditions: guinea pig ileum; cited from earlier work
[22] = set-up: method as in PMID 18305012; conditions: applied i.p. to rats; cited from earlier work
[23] = target: hα2C; set-up: method as in PMID 12606603; conditions: human; cited from earlier work
[24] = target: mH3R; set-up: method as in PMID 15341517; conditions: mouse H3R; cited from earlier work
[25] = target: r5-HT2A; set-up: method as in PMID 9808693; conditions: rat tail; cited from earlier work
[26] = tested on: MAO; conditions: cited from earlier work

In the case of `O=C(c1ccc(OCCCc2cnc[nH]2)cc1)C1CC1` [Ciproxifan, cyclopropyl 4-(3-(1H-imidazol-4-yl)propyloxy)phenyl methanone], the IC50 [1] is reported as 38 µM and 37.5 µM, the “IC50, MAO B/IC50, MAO A” value ([2]; rat brain MAO) is reported as 0.4 and the IC50 ([2]; substrate PEA, radiometric, rat brain homogenate, read-out: IC50 rMAO B) is reported as 15 µM and 15.4 µM. For the same molecule, the Ki [3] was over 2 µM, the Ki [4] was 0.041 µM and the Ki [5] was 3.98 µM. For the same molecule, the Ki [6] was over 3.16 µM, the Ki [7] was over 10 µM and the Ki [8] was over 10 µM. The “Ki at rodent H3R, fold lower than at the human H3R” value [9] was 30- to 100 fold, the IC50 [10] was 11 µM and 11.4 µM and the Ki [11] was 1.86 µM. For the same molecule, the Ki [12] was 0.302 µM, the Ki [13] was over 10 µM and the Ki [14] was 0.043 µM. The Ki [15] was 0.046 to 0.18 µM, the Ki [16] was 12.6 µM and the “IC50, MAO B/IC50, MAO A” value ([17]; human MAO) was 0.2. The “preference for MAO B” value ([17]; human MAO B over MAO A) was “about 5 fold”, the IC50 ([17]; substrate BZA) was 4.3 ± 0.7 µM and the IC50 ([17]; substrate KYN) was 2 µM and 2.1 µM. For the same molecule, the Ki [18] was 0.0004 to 0.0062 µM, the “Inhibition Type” value [19] was “Reversible” and the Ki [20] was 16.6 µM. The Ki [21] was 3.16 µM, the brain concentrations [22] was at most 10 µM and the Ki [23] was 0.063 µM. For the same molecule, the Ki [24] was 0.0005 to 0.0008 µM and the Ki [25] was 15.8 µM.

In the case of `C#CCN(C)CCCOc1ccc(Cl)cc1Cl` [Clorgyline], the “Inhibition Type” value [26] is given as “Mixed/Irreversible[33]”.

For `C#CCN(C)[C@H](C)Cc1ccccc1` [L-Deprenyl], the “Inhibition Type” value [26] is listed as “Mixed/Irreversible[33]”.

For `O=C(NCCN1CCOCC1)c1ccc(Cl)cc1` [Moclobemide], the “Inhibition Type” value [26] is given as “Reversible[32]”.

In the case of `C[C@H](NCc1ccc(OCc2cccc(F)c2)cc1)C(N)=O` [Safinamide], the “Inhibition Type” value [26] is listed as “Reversible[20]”.
